Test system: 876862-298-R-J1-PDC complex spheroids, viability % test/control
Experiment: Anticancer human tumor 876862-298-R-J1-PDC patient-derived endometrial carcinoma cell line growth inhibition [CLK]
Details: for IC50: curve of first compound; for viability, T/C: stronger effect = lower value
In short: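 Patient-derived tumor cells grown as complex spheroids with HUVEC endothelial cells and mesenchymal stem cells, treated with drug combinations. Concentrations descend in half-log steps from near clinical Cmax, or from 10 microM if Cmax unknown.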
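Also: spheroids exposed to drugs for 7 days before readout.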
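For viability, T/C in this document: 100% = DMSO vehicle control wells.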

IC50 (second compound 0.0316 µM): < 31.6 nM
IC50 (second compound 0.1 µM): < 31.6 nM
IC50 (second compound 0.316 µM): < 31.6 nM
IC50 (second compound 1 µM): < 31.6 nM
IC50 (second compound 3.16 µM): < 31.6 nM
IC50 (second compound 10 µM): < 31.6 nM
SMILES: Nc1ccn(C2OC(CO)C(O)C2(F)F)c(=O)n1 (configuration not stated) + CNC(=O)c1ccc(Nc2nc(OC3CCCC3)c3c(-c4ccc5nc(C)oc5c4)c[nH]c3n2)c(OC)c1
viability, T/C (second compound 0.0316 µM, first compound 0.0316 µM): 15.1%
viability, T/C (second compound 0.0316 µM, first compound 0.1 µM): 7.66%
viability, T/C (second compound 0.0316 µM, first compound 0.316 µM): 9.02%
viability, T/C (second compound 0.0316 µM, first compound 1 µM): 6.2%
viability, T/C (second compound 0.0316 µM, first compound 3.16 µM): 7.72%
viability, T/C (second compound 0.0316 µM, first compound 10 µM): 9.97%
viability, T/C (second compound 0.1 µM, first compound 0.0316 µM): 16.5%
viability, T/C (second compound 0.1 µM, first compound 0.1 µM): 9.17%
viability, T/C (second compound 0.1 µM, first compound 0.316 µM): 9.31%
viability, T/C (second compound 0.1 µM, first compound 1 µM): 7.24%
viability, T/C (second compound 0.1 µM, first compound 3.16 µM): 7.42%
viability, T/C (second compound 0.1 µM, first compound 10 µM): 10.1%
viability, T/C (second compound 0.316 µM, first compound 0.0316 µM): 17.7%
viability, T/C (second compound 0.316 µM, first compound 0.1 µM): 7.67%
viability, T/C (second compound 0.316 µM, first compound 0.316 µM): 7.58%
viability, T/C (second compound 0.316 µM, first compound 1 µM): 5.78%
viability, T/C (second compound 0.316 µM, first compound 3.16 µM): 7.22%
viability, T/C (second compound 0.316 µM, first compound 10 µM): 6.26%
viability, T/C (second compound 1 µM, first compound 0.0316 µM): 14.6%
viability, T/C (second compound 1 µM, first compound 0.1 µM): 8.47%
viability, T/C (second compound 1 µM, first compound 0.316 µM): 6.7%
viability, T/C (second compound 1 µM, first compound 1 µM): 6.04%
viability, T/C (second compound 1 µM, first compound 3.16 µM): 6.8%
viability, T/C (second compound 1 µM, first compound 10 µM): 5.73%
viability, T/C (second compound 3.16 µM, first compound 0.0316 µM): 10.5%
viability, T/C (second compound 3.16 µM, first compound 0.1 µM): 5.98%
viability, T/C (second compound 3.16 µM, first compound 0.316 µM): 5.8%
viability, T/C (second compound 3.16 µM, first compound 1 µM): 6.15%
viability, T/C (second compound 3.16 µM, first compound 3.16 µM): 4.91%
viability, T/C (second compound 3.16 µM, first compound 10 µM): 5.13%
viability, T/C (second compound 10 µM, first compound 0.0316 µM): 8.61%
viability, T/C (second compound 10 µM, first compound 0.1 µM): 5.73%
viability, T/C (second compound 10 µM, first compound 0.316 µM): 5.74%
viability, T/C (second compound 10 µM, first compound 1 µM): 5.44%
viability, T/C (second compound 10 µM, first compound 3.16 µM): 6.11%
viability, T/C (second compound 10 µM, first compound 10 µM): 3.96%

From PubChem BioAssay AID2060607 (Molecular Pharmacology Branch, DTP, NCI, 2025)
